For data set [1], the target named is T1, CYP161H12 (Amycolatopsis pretoriensis, UniProt A0A1H5RFX8). In words: CYP161H12 catalytic activity on different substrates (cell-free CYP161H12-RHFRed/opt13 conversion, liquid chromatography). The following applies: role: substrate; 2 mM substrate, 0.5 equiv. NADP+, 50 equiv. Na2HPO3·5H2O, 5% DMSO, pH 7.0, 23° C., 20 h; enzyme 3.68×10^−3 mM.
For data set [2], the system named is human colon cancer cells (SW480). In words: CCK-8 tumor cell growth inhibition, SW480. The data set is classed as cell-based. The settings on record: for IC50: Homo sapiens, SW480, 48 h co-incubation, CCK-8, read-out: IC50 against SW480; for activity against human colon cancer cells compared with the parent compound 1 (glycyrrhetinic acid): relative to parent compound 1. As for the experimental part:
(§1) Human hepatocellular carcinoma cells (HepG2) and human colon cancer cells (SW480) were cultured in a complete culture medium consisting of high-glucose DMEM supplemented with 10% (v/v) heat-inactivated fetal bovine serum, 100 U/mL of penicillin, and […] of streptomycin. All cells used in the experiments were cultured in an incubator at 37° C. with 5% CO2 saturated humidity.
(§2) All compounds were dissolved in DMSO to prepare 20 mM compound stock solutions. • 10 μL of the compound stock solution was added to 1 mL of the complete culture medium to prepare a 200 μM compound solution; • 4 μL of the compound stock solution was added to 1 mL of the complete culture medium to prepare a 80 μM compound solution; • 0.5 mL of the 80 μM compound solution was added to 0.5 mL of the complete culture medium to prepare a 40 μM compound solution; • 0.5 mL of the 40 μM compound solution was added to 0.5 mL of the complete culture medium to prepare a 20 μM compound solution; • 0.5 mL of the 20 μM compound solution was added to 0.5 mL of the complete culture medium to prepare a 10 μM compound solution; • 0.5 mL of the 10 μM compound solution was added to 0.5 mL of the complete culture medium to prepare a 5 μM compound solution;
(§3) The inhibitory effects of the compounds on tumor cell growth were evaluated using a CCK-8 assay. A cell suspension at a predetermined density (5× 10^4/mL cells/mL) was seeded into a 96-well plate. Outermost 36 wells of the 96-well plate were filled with 200 μL of PBS buffer (0.01 M, pH 7.4), while inner 60 wells thereof were used as a drug group, a blank group, and a negative control group. Each group was tested in triplicate.
(§4) Drug group: 100 μL of the cell suspension was added to each well and incubated for 24 h, and 100 μL of the 80 μM compound solution (100 μL of the 200 μM solution was added to Compound 1) was added for co-incubating for another 48 h; 20 μL of CCK-8 solution was added to each well, followed by incubation for another 2 h; and absorbance at 450 nm was measured with a microplate reader.
(§5) Blank group: 100 μL of the complete culture medium was added to each well and incubated for 24 h, and 100 μL of the complete culture medium was then added for co-incubating for another 48 h; 20 μL of CCK-8 solution was added to each well, followed by incubation for another 2 h; and absorbance at 450 nm was measured with a microplate reader.
(§6) Negative control group: 100 μL of the cell suspension was added to each well and incubated for 24 h, and 100 μL of the complete culture medium containing 0.4 μL of DMSO was then added for co-incubating for another 48 h; 20 μL of CCK-8 solution was added to each well, followed by incubation for another 2 h; and absorbance at 450 nm was measured with a microplate reader.
(§7) The cell growth inhibitory ratio (IR) was calculated according to the following formulas:
(§8) [formula] • IR: Inhibitory Ratio • ODpositive: absorbance of the drug group • ODblank: absorbance of the blank group • ODnegative: absorbance of the negative control group
(§9) Each concentration was tested in triplicate. Based on the tumor cell inhibitory ratios at different concentrations, the IC50 was calculated using GraphPad Prism 9.

Data set [3] relates to Human hepatocellular carcinoma cells (HepG2). In words: CCK-8 tumor cell growth inhibition, HepG2. The data set is classed as cell-based. The settings on record: for IC50: Homo sapiens, HepG2, 48 h co-incubation, CCK-8, read-out: IC50 against HepG2. As for the experimental part: as §1, §2, §3, §4, §5, §6, §7, §8, §9
Data set [4] concerns the target T1, CYP161H12.

26 compounds from patent US20260337583A1, “CYTOCHROME P450 ENZYME, NUCLEIC ACID MOLECULE, AND GLYCYRRHETINIC ACID DERIVATIVE AND USE THEREOF” (CHINA PHARMACEUTICAL UNIVERSITY, priority 2023, published 2026) can be followed below.

Read-outs that look alike come from different tables or passages of the source. A value given as a limit tells only on which side of the number the result lay.

T1 sequence (A0A1H5RFX8 1-404): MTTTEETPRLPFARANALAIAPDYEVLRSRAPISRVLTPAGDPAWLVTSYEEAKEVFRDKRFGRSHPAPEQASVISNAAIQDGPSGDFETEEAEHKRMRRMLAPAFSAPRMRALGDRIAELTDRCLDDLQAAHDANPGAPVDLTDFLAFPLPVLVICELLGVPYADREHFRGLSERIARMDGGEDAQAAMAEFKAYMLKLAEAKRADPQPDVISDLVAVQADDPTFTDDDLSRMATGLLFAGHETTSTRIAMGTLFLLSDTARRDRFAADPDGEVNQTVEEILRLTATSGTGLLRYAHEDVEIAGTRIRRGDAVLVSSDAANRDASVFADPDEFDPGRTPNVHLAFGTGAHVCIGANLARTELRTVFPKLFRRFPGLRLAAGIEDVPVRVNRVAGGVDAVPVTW

A word on the IC50: it is the concentration needed to halve the response being measured. For `CC1(C)[C@@H](O)CC[C@]2(C)[C@H]3C(=O)C=C4[C@@H]5C[C@@](C)(C(=O)O)CC[C@]5(C)CC[C@@]4(C)[C@]3(C)CC[C@@H]12` [Compound 1, glycyrrhetinic acid], the “yield of Substrate catalyzed by CYP161H12” value (shortened to “yield of Substrate catalyzed”) in data set [1] stood at 100%. For the same compound, the IC50 in data set [2] and in data set [3] was > 100 µM throughout.

Take `CC1(C)[C@@H](O)CC[C@]2(C)[C@H]3C(=O)C=C4[C@@H]5C[C@@](C)(C(=O)O)CC[C@]5(C)CC[C@@]4(C)[C@]3(C)[C@@H](O)C[C@@H]12` [Compound 1a]: the IC50 in data set [2] and in data set [3] was > 40 µM each time.

Turning to `CC1(C)[C@@H](O)CC[C@]2(C)[C@H]3C(=O)C=C4[C@@H]5C[C@@](C)(C(=O)O)CC[C@]5(C)C[C@H](O)[C@@]4(C)[C@]3(C)[C@@H](O)C[C@@H]12` [Compound 1b], the IC50 in data set [2] and in data set [3] was > 40 µM in each case.

Consider `CC(=O)O[C@H]1CC[C@]2(C)[C@H]3C(=O)C=C4[C@@H]5C[C@@](C)(C(=O)O)CC[C@]5(C)CC[C@@]4(C)[C@]3(C)[C@@H](O)C[C@H]2C1(C)C` [Compound 2a], for which the IC50 in data set [2] and in data set [3] was > 40 µM throughout.

`CC(=O)O[C@H]1CC[C@]2(C)[C@H]3C(=O)C=C4[C@@H]5C[C@@](C)(C(=O)O)CC[C@]5(C)C[C@H](O)[C@@]4(C)[C@]3(C)[C@@H](O)C[C@H]2C1(C)C` [Compound 2b]: the IC50 in data set [2] and in data set [3] was > 40 µM each time.

Regarding `CCC(=O)O[C@H]1CC[C@]2(C)[C@H]3C(=O)C=C4[C@@H]5C[C@@](C)(C(=O)O)CC[C@]5(C)CC[C@@]4(C)[C@]3(C)[C@@H](O)C[C@H]2C1(C)C` [Compound 3a], the IC50 in data set [2] and in data set [3] was > 40 µM in each case.

On to `CCCC(=O)O[C@H]1CC[C@]2(C)[C@H]3C(=O)C=C4[C@@H]5C[C@@](C)(C(=O)O)CC[C@]5(C)CC[C@@]4(C)[C@]3(C)[C@@H](O)C[C@H]2C1(C)C` [Compound 4a], for which the IC50 in data set [2] and in data set [3] was > 40 µM throughout.

Consider `CC1(C)C(=O)CC[C@]2(C)[C@H]3C(=O)C=C4[C@@H]5C[C@@](C)(C(=O)O)CC[C@]5(C)CC[C@@]4(C)[C@]3(C)[C@@H](O)C[C@@H]12` [Compound 5a], for which the IC50 in data set [2] and in data set [3] was > 40 µM each time.

As to `CC1(C)C(=O)CC[C@]2(C)[C@H]3C(=O)C=C4[C@@H]5C[C@@](C)(C(=O)O)CC[C@]5(C)C[C@H](O)[C@@]4(C)[C@]3(C)[C@@H](O)C[C@@H]12` [Compound 5b], the IC50 in data set [2] and in data set [3] was > 40 µM in each case.

On to `CC1(C)C(=O)C=C[C@]2(C)[C@H]3C(=O)C=C4[C@@H]5C[C@@](C)(C(=O)O)CC[C@]5(C)CC[C@@]4(C)[C@]3(C)[C@@H](O)C[C@@H]12` [Compound 6a], for which the IC50 in data set [2] and in data set [3] was > 40 µM throughout.

Turning to `CC1(C)C(=O)C=C[C@]2(C)[C@H]3C(=O)C=C4[C@@H]5C[C@@](C)(C(=O)O)CC[C@]5(C)C[C@H](O)[C@@]4(C)[C@]3(C)[C@@H](O)C[C@@H]12` [Compound 6b], the IC50 in data set [2] and in data set [3] was > 40 µM throughout.

`CC1(C)OC(=O)CC[C@]2(C)[C@H]3C(=O)C=C4[C@@H]5C[C@@](C)(C(=O)O)CC[C@]5(C)CC[C@@]4(C)[C@]3(C)[C@@H](O)C[C@@H]12` [Compound 7a]: the IC50 in data set [2] and in data set [3] was > 40 µM in each case.

As for `CC1(C)OC(=O)CC[C@]2(C)[C@H]3C(=O)C=C4[C@@H]5C[C@@](C)(C(=O)O)CC[C@]5(C)C[C@H](O)[C@@]4(C)[C@]3(C)[C@@H](O)C[C@@H]12` [Compound 7b], the IC50 in data set [2] and in data set [3] was > 40 µM each time.

On to `CC1(C)c2oncc2C[C@]2(C)[C@H]3C(=O)C=C4[C@@H]5C[C@@](C)(C(=O)O)CC[C@]5(C)CC[C@@]4(C)[C@]3(C)[C@@H](O)C[C@@H]12` [Compound 8a], for which the IC50 in data set [2] and in data set [3] was > 40 µM throughout.

`CC1(C)c2oncc2C[C@]2(C)[C@H]3C(=O)C=C4[C@@H]5C[C@@](C)(C(=O)O)CC[C@]5(C)C[C@H](O)[C@@]4(C)[C@]3(C)[C@@H](O)C[C@@H]12` [Compound 8b]: the IC50 in data set [2] and in data set [3] was > 40 µM throughout.

In the case of `COC(=O)[C@@]1(C)CC[C@]2(C)CCC3(C)C(=CC(=O)[C@@H]4[C@@]5(C)CC[C@H](O)C(C)(C)[C@@H]5C[C@H](O)[C@]43C)[C@@H]2C1` (some centres unmarked) [Compound 9a], the IC50 in data set [2] and in data set [3] was > 40 µM throughout.

In the case of `COC(=O)[C@@]1(C)CC[C@]2(C)C[C@H](O)[C@]3(C)C(=CC(=O)[C@@H]4[C@@]5(C)CC[C@H](O)C(C)(C)[C@@H]5C[C@H](O)[C@]43C)[C@@H]2C1` [Compound 9b], the IC50 in data set [2] and in data set [3] was > 40 µM throughout.

On to `C=CCCCCOC(=O)[C@@]1(C)CC[C@]2(C)CC[C@]3(C)C(=CC(=O)[C@@H]4[C@@]5(C)CC[C@H](O)C(C)(C)[C@@H]5C[C@H](O)[C@]43C)[C@@H]2C1` [Compound 10a], for which, in data set [2], the IC50 amounted to 39.2 ± 2.34 µM and the “activity against human colon cancer cells compared with the parent compound 1 (glycyrrhetinic acid)” value is “more than twice the activity”. The IC50 in data set [3] was > 40 µM.

On to `C=CCCCCOC(=O)[C@@]1(C)CC[C@]2(C)C[C@H](O)[C@]3(C)C(=CC(=O)[C@@H]4[C@@]5(C)CC[C@H](O)C(C)(C)[C@@H]5C[C@H](O)[C@]43C)[C@@H]2C1` [Compound 10b], for which, in data set [2], the IC50 stood at 32 ± 3.36 µM and the “activity against human colon cancer cells compared with the parent compound 1 (glycyrrhetinic acid)” value is reported as “more than twice the activity”. Also, the IC50 in data set [3] worked out at 38.6 ± 0.54 µM. The “activity against human liver cancer cells compared with the parent compound 1 (glycyrrhetinic acid)” value in data set [3] (relative to parent compound 1) is recorded as “more than twice the activity”.

With `CC(=O)O[C@H]1CC[C@]2(C)[C@H]3C(=O)C=C4[C@@H]5C[C@@](C)(C(=O)O)CC[C@]5(C)CC[C@@]4(C)[C@]3(C)CC[C@H]2C1(C)C` [Substrate 2, 3-acetyl-glycyrrhetinic acid], in data set [1], the “yield of Substrate catalyzed” value was found to be 92%.

Regarding `CCC(=O)O[C@H]1CC[C@]2(C)[C@H]3C(=O)C=C4[C@@H]5C[C@@](C)(C(=O)O)CC[C@]5(C)CC[C@@]4(C)[C@]3(C)CC[C@H]2C1(C)C` [Substrate 3, 3-propionyl-glycyrrhetinic acid], the “yield of Substrate catalyzed” value in data set [1] worked out at 61%.

Consider `CCCC(=O)O[C@H]1CC[C@]2(C)[C@H]3C(=O)C=C4[C@@H]5C[C@@](C)(C(=O)O)CC[C@]5(C)CC[C@@]4(C)[C@]3(C)CC[C@H]2C1(C)C` [Substrate 4, 3-butyryl-glycyrrhetinic acid], for which the “yield of Substrate catalyzed” value in data set [1] was found to be 23%.

For `CC1(C)C(=O)CC[C@]2(C)[C@H]3C(=O)C=C4[C@@H]5C[C@@](C)(C(=O)O)CC[C@]5(C)CC[C@@]4(C)[C@]3(C)CC[C@@H]12` [Substrate 5, 3-oxo-glycyrrhetinic acid], the “ratio of hydroxylated products a:b” value in data set [4] is 76:24. Further, in data set [4] (pH 7), the “yield of Substrate catalyzed” value is recorded as 87%.

In the case of `CC1(C)C(=O)C=C[C@]2(C)[C@H]3C(=O)C=C4[C@@H]5C[C@@](C)(C(=O)O)CC[C@]5(C)CC[C@@]4(C)[C@]3(C)CC[C@@H]12` [Substrate 6, 3-oxo-1-ene-glycyrrhetinic acid], the “yield of Substrate catalyzed” value in data set [1] was determined as 81%.

Regarding `CC1(C)OC(=O)CC[C@]2(C)[C@H]3C(=O)C=C4[C@@H]5C[C@@](C)(C(=O)O)CC[C@]5(C)CC[C@@]4(C)[C@]3(C)CC[C@@H]12` [Substrate 7], the “yield of Substrate catalyzed” value in data set [1] is recorded as 87%.

Turning to `CC1(C)c2oncc2C[C@]2(C)[C@H]3C(=O)C=C4[C@H]5C[C@@](C)(C(=O)O)CC[C@]5(C)CC[C@@]4(C)[C@]3(C)CC[C@@H]12` [Substrate 8], the “yield of Substrate catalyzed” value in data set [1] is on record as 97%.
